Test results published in patent US10538561B2, “Peptide for treating inflammatory diseases” (priority 2015, dated 2020).
Structures can show the parent of a compound that is named as a salt. Marks after values point to notes of the source that are not given here.

Tests used:
VEGF = VEGF inhibition in keratinocytes (ELISA); type: cell-based, Human; details: HaCaT, 24 h
Procedure: Cell lines: Human Keratinocytes (HaCaT); test item: IS181; treatment regimen: single addition—24 hours; concentration range: 0.1 μg/ml-100 μg/ml. […] Cells were serum-starved for another 24 hours (0% FBS). Cells were treated with IS181 for 24 hours. Supernatants were collected and stored at −20° C. till analysed. Levels of VEGF were analysed in supernatants by ELISA. Percent inhibition of VEGF secretion was calculated with reference to untreated levels. Positive control: curcumin; retinoic acid (at non-cytotoxic concentrations).

IL-8 = experiment: LPS+PMA stimulated IL-8 secretion in HaCaT; type: cell-based, Human; details: HaCaT + LPS + PMA
Procedure: (§1) Effect on pro-inflammatory cytokines against TNF-α/LPS+PMA stimulation: TNF-α; IFN-γ; TARC; TSLP; IL-6; IL-8: Cell lines: Human keratinocytes (HaCaT); test item (TI); IS181; experimental steps: pre-treatment of cells with TI for 2 hours; stimulation with TNF-α: 20 ng/ml; stimulation with LPS+PMA-10 μg/ml LPS+40 ng/ml PMA; supernatant collection for cytokine analysis after 24 hours; concentration range: 0.1 μg/ml-100 μg/ml (duplicate wells); cytokines: TNF-α; IFN-γ; TARC; TSLP; IL-6; IL-8. Method of estimating cytokines: ELISA; positive control: dexamethasone.
(§2) Cell line: HaCaT (Human Keratinocytes); TI Treatment regimen: Pretreatment for 2 h; TI Concentration range: 0.1 μg/ml-100 μg/ml (duplicate wells); TNF-α stimulation: 20 ng/ml; LPS+PMA stimulation: 10 μg/ml LPS+40 ng/ml PMA; Time point for supernatants collection: 24 h; Method of estimation: ELISA; Positive control: Dexamethasone

TARC = experiment: TNF-α stimulated TARC secretion in HaCaT; type: cell-based, Human; details: HaCaT + TNF-α
Procedure: as §1, §2

IL-1-β = experiment: LPS stimulated IL-1-β secretion in RAW264.7; type: cell-based, Mouse; details: RAW264.7 + LPS
Procedure: (§3) Effect on pro-inflammatory cytokines against LPS stimulation: TNF-α; IL-6; IL-1-β: Cell lines: Murine macrophage cell line (RAW264.7); test item: IS181; experimental steps: pretreatment of cells with TI for 2 hours; stimulation with LPS (100 ng/ml) for 24 hours; supernatant collection for cytokine analysis; concentration range: o.1 μg/ml-500 μg/ml (duplicate wells); Cytokines: TNF-α; IL-6; IL-1-β; Method of estimating cytokines: ELISA; positive control: dexamethasone.
(§4) Cell line: RAW264.7 (Mouse macrophages); TI treatment regimen: Pretreatment for 2 h; TI Concentration range: 0.1 μg/ml-500 μg/ml (duplicate wells); LPS stimulation: 100 ng/ml; Time point for supernatants collection: 24 h; Method of estimation: ELISA; Positive control: Dexamethasone

IL-6 [1] = experiment: LPS stimulated IL-6 secretion in RAW264.7; type: cell-based, Mouse; details: RAW264.7 + LPS
Procedure: as §3, §4

TSLP = experiment: LPS+PMA stimulated TSLP secretion in HaCaT; type: cell-based, Human; details: HaCaT + LPS + PMA
Procedure: as §1, §2

TNF-α [2] = experiment: LPS stimulated TNF-α secretion in RAW264.7; type: cell-based, Mouse; details: RAW264.7 + LPS
Procedure: as §3, §4

TNF-α [3] = experiment: TNF-α level in TNF-α stimulated HaCaT; type: cell-based, Human
Procedure: as §1, §2

IFN-γ = experiment: TNF-α stimulated IFN-γ secretion in HaCaT; type: cell-based, Human; details: HaCaT + TNF-α
Procedure: as §1, §2

IL-6 [4] = experiment: LPS+PMA stimulated IL-6 secretion in HaCaT; type: cell-based, Human
Procedure: as §1, §2

[5] = tested on: Human Keratinocytes (HaCaT); experiment: Cell viability (MTT assay) in HaCaT; type: cell-based; details: human
Procedure: (§5) Cell Lines/Cells: Human Keratinocytes (HaCaT); Human melanoma (SK-MEL-28); Human PBMCs. Test Item: IS181 Treatment regimen: Single addition—24 h, ^#Multiple additions (3)−72 h; Concentration range: 1 ng/ml-2 mg/ml (triplicate wells); Sera Condition: […] Method of estimation: MTT assay. […] Positive control: Triton-X-100, Doxorubicin Hydrochloride.

[6] = tested on: HaCaT (Human keratinocyte); experiment: LDH enzyme release assay; type: cell-based
Procedure: (§6) For testing Apoptosis the Human Keratinocytes (HaCaT) cell line has been employed. The growth conditions are DMEM containing 1% FBS. […] Test concentration range is IS181 is tested at the highest (Qualitative analysis) effective concentrations selected on the basis of Quantitative JC-1 assay. The method of estimation is Mitochondrial membrane depolarization by JC-1 assay (Early apoptosis), LDH enzyme release (Necrosis). Treatment regimen & time points are JC-1 assay—Single addition, 20 h; LDH assay—Single addition, 24 h; Positive control: Triton-X-100, Doxorubicin-hydrochloride
End-point: Percentage increase in LDH activity in treated cells with respect to untreated.

[7] = tested on: Human melanoma (SK-MEL-28); experiment: Cell viability (MTT assay) in SK-MEL-28; type: cell-based; details: human
Procedure: as §5

[8] = tested on: HaCaT (Human keratinocyte) cell line; experiment: Mitochondrial membrane potential by JC-1 assay; type: cell-based
Procedure: as §6
Quantitative effect on Δψm (Red fluorescence/Green fluorescence) in HaCaT cells post 20 hours of treatment. […] Evaluation (Qualitative and quantitative) of differential JC-1 staining in treated cells after 20 h on incubation with the test peptides.

CC1=C(/C=C/C(C)=C/C=C/C(C)=C/C(=O)O)C(C)(C)CCC1 [RA, retinoic acid, reference compound]
Conc. of VEGF (pg/ml) (VEGF; RA 1 μM): 2775.1* pg/ml | Conc. of VEGF (VEGF; RA 10 μM): 2982.4 pg/mL | inhibition at 1 µM (VEGF; Homo sapiens, RA 1 μM, read-out: % Inhibition of VEGF wrt untreated (basal) levels): 22.8% | inhibition at 10 µM (VEGF; Homo sapiens, RA 10 μM, read-out: % Inhibition of VEGF wrt untreated (basal) levels): 17%

C[C@@H]1C[C@H]2[C@@H]3CCC4=CC(=O)C=C[C@]4(C)[C@@]3(F)[C@@H](O)C[C@]2(C)[C@@]1(O)C(=O)CO [Dexamethasone, reference compound]
IL-8 % decrease with respect to LPS + PMA (IL-8; 1 μM): 65.1% | IL-8 Conc (pg/ml) (IL-8; 1 μM): 136.9*** pg/ml | IL-8 % decrease with respect to LPS + PMA (IL-8; 10 μM): 72.6% | IL-8 Conc (pg/ml) (IL-8; 10 μM): 107.4*** pg/ml | IL-8 % decrease with respect to LPS + PMA (IL-8; 25 μM): 67.9% | IL-8 Conc (pg/ml) (IL-8; 25 μM): 125.7*** pg/ml | TARC % decrease with respect to TNF-α (TARC; 1 μM): 13.2% | TARC Conc (TARC; 1 μM): 52.5 pg/mL | TARC % decrease with respect to TNF-α (TARC; 10 μM): 13.5% | TARC Conc (TARC; 10 μM): 52.3 pg/mL | TARC % decrease with respect to TNF-α (TARC; 25 μM): 13.5% | TARC Conc (TARC; 25 μM): 52.3 pg/mL | IL-1-β % decrease with respect to LPS (IL-1-β; 0.5 μg /ml): 53.6% | IL-1-β Conc (pg/ml) (IL-1-β; 0.5 μg /ml): 9.6* pg/ml | IL-1-β % decrease with respect to LPS (IL-1-β; 1 μg /ml): 44.6% | IL-1-β Conc (pg/ml) (IL-1-β; 1 μg /ml): 11.4* pg/ml | IL-1-β % decrease with respect to LPS (IL-1-β; 10 μg/ml): 39.0% | IL-1-β Conc (pg/ml) (IL-1-β; 10 μg/ml): 12.6* pg/ml | IL-6 % decrease with respect to LPS (IL-6 [1]; 0.5 μg /ml): 45.9% | IL-6 Conc (pg/ml) (IL-6 [1]; 0.5 μg /ml): 567.6** pg/ml | IL-6 % decrease with respect to LPS (IL-6 [1]; 1 μg /ml): 61.3% | IL-6 Conc (pg/ml) (IL-6 [1]; 1 μg /ml): 405.9*** pg/ml | IL-6 % decrease with respect to LPS (IL-6 [1]; 10 μg/ml): 72.3% | IL-6 Conc (pg/ml) (IL-6 [1]; 10 μg/ml): 291.2*** pg/ml | TSLP % decrease with respect to LPS + PMA (TSLP; 1 μM): 46.4% | TSLP Conc (pg/ml) (TSLP; 1 μM): 66.6** pg/ml | TSLP % decrease with respect to LPS + PMA (TSLP; 10 μM): 41.9% | TSLP Conc (pg/ml) (TSLP; 10 μM): 72.1** pg/ml | TSLP % decrease with respect to LPS + PMA (TSLP; 25 μM): 44.7% | TSLP Conc (pg/ml) (TSLP; 25 μM): 68.7** pg/ml | TNF-α % decrease with respect to LPS (TNF-α [2]; 0.5 μg /ml): 54.1% | TNF-α Conc (pg/ml) (TNF-α [2]; 0.5 μg /ml): 451.7*** pg/ml | TNF-α % decrease with respect to LPS (TNF-α [2]; 1 μg /ml): 70.4% | TNF-α Conc (pg/ml) (TNF-α [2]; 1 μg /ml): 291.8*** pg/ml | TNF-α % decrease with respect to LPS (TNF-α [2]; 10 μg/ml): 71.2% | TNF-α Conc (pg/ml) (TNF-α [2]; 10 μg/ml): 283.1*** pg/ml | TNF-α % decrease with respect to TNF-α (TNF-α [3]; 1 μM): 17.6% | TNF-α Conc (TNF-α [3]; 1 μM): 17423.9 pg/mL | TNF-α % decrease with respect to TNF-α (TNF-α [3]; 10 μM): 31.2% | TNF-α Conc (TNF-α [3]; 10 μM): 14536.0 pg/mL | TNF-α % decrease with respect to TNF-α (TNF-α [3]; 25 μM): 4.7% | TNF-α Conc (TNF-α [3]; 25 μM): 20138.0 pg/mL | IFN-γ % decrease with respect to TNF-α (IFN-γ; 1 μM): 34.5% | IFN-γ Conc (pg/ml) (IFN-γ; 1 μM): 31.2*** pg/ml | IFN-γ % decrease with respect to TNF-α (IFN-γ; 10 μM): 25.4% | IFN-γ Conc (pg/ml) (IFN-γ; 10 μM): 35.5** pg/ml | IFN-γ % decrease with respect to TNF-α (IFN-γ; 25 μM): 31.2% | IFN-γ Conc (pg/ml) (IFN-γ; 25 μM): 32.8** pg/ml | IL-6 % decrease with respect to LPS + PMA (IL-6 [4]; 1 μM): 100.0% | IL-6 Conc (pg/ml) (IL-6 [4]; 1 μM): 0.0*** pg/ml | IL-6 % decrease with respect to LPS + PMA (IL-6 [4]; 10 μM): 94.8% | IL-6 Conc (pg/ml) (IL-6 [4]; 10 μM): 0.8*** pg/ml | IL-6 % decrease with respect to LPS + PMA (IL-6 [4]; 25 μM): 84.2% | IL-6 Conc (pg/ml) (IL-6 [4]; 25 μM): 2.4*** pg/ml

COc1cccc2c1C(=O)c1c(O)c3c(c(O)c1C2=O)C[C@@](O)(C(=O)CO)C[C@@H]3O[C@H]1C[C@H](N)[C@H](O)[C@H](C)O1 [Doxorubicin, Doxorubicin Hydrochloride, reference compound]
cytotoxicity ([5]; 24 h): up to 48% | cytotoxicity ([5]; 72 h): > 88% | % Increase with respect to untreated (LDH) ([6]; 0.1 μM): −4.78% | LDH Activity (mU/ml) ([6]; 0.1 μM): 60.23 mU/ml | % Increase with respect to untreated (LDH) ([6]; 1 μM): −16.43% | LDH Activity (mU/ml) ([6]; 1 μM): 52.87 mU/ml | % Increase with respect to untreated (LDH) ([6]; 10 μM): ***125.92% | LDH Activity (mU/ml) ([6]; 10 μM): 142.92 mU/ml | cytotoxicity [7]: up to 40% | Green fluorescence intensity (RFU) ([8]; 0.1 μM): 11.5 ± 0.71 RFU | Red fluorescence intensity (RFU) ([8]; 0.1 μM): ^#106.17 ± 15.32 ^ RFU | Red fluorescence intensity/Green fluorescence intensity ([8]; 0.1 μM): 9.23 | Green fluorescence intensity (RFU) ([8]; 1 μM): 11.5 ± 0.71 RFU | Red fluorescence intensity (RFU) ([8]; 1 μM): 93.25 ± 22.98 RFU | Red fluorescence intensity/Green fluorescence intensity ([8]; 1 μM): 8.11 | Green fluorescence intensity (RFU) ([8]; 10 μM): 9.83 ± 4.48 RFU | Red fluorescence intensity (RFU) ([8]; 10 μM): 49.83 ± 1.65 RFU | Red fluorescence intensity/Green fluorescence intensity ([8]; 10 μM): 5.07
